Usually IC50 stands for the concentration that gives 50% inhibition.

Consider 2 molecules from publication PMC5519068 (PLoS ONE, 2017).

Like-named read-outs stand apart in the source and are kept apart here.

One test concerns the target Flt3-ITD kinase domain (Homo sapiens, UniProt P36888). In words: In vitro kinase assay (Z'-LYTE). Conditions: ATP at Km. It counts as biochemical. The method, then:
(§1) Recombinant protein kinase assays were performed using the FRET-based Z’-LYTE Kinase Assay according to the manufacturer’s instructions (Thermo Fisher Scientific). […] The Tyr-2 peptide was used as substrate for all recombinant kinases. Kinases were preincubated with inhibitors for 30 minutes, followed by addition of ATP and peptide substrate for 1 hour. Reactions were quenched by addition of development reagent, followed by incubation for an additional hour prior to fluorescence measurements on a SpectraMax M5 microplate reader. IC50 values were calculated by non-linear regression analysis of the resulting concentration-response curves using GraphPad PRISM.

The next test concerns the target T1, Flt3-WT kinase domain (Homo sapiens, UniProt P36888).
T1 construct: Recombinant Flt3-WT, Flt3-ITD, and Flt3-D835Y kinase domain proteins were purchased from Life Technologies; purchased Life Technologies
In words: In vitro kinase assay (Z'-LYTE). The following applies: ATP at Km. Format: biochemical. On the procedure: as §1

Test [1] has as its system TF-1 cells transduced with an empty retroviral vector (Control). The test can be described thus: Inhibitor sensitivity of TF-1 cell populations, CellTiter-Blue, 72 h. It counts as cell-based, human. Conditions: Homo sapiens, TF-1; empty vector control, 72 h. The method, then: (§2) Cells were seeded at a density of 100,000 cells per 1.0 ml in 48-well culture plates. Compounds were added to various concentrations while holding the DMSO concentration constant at 0.1%. Cell viability was assessed 72 hours later using the CellTiter-Blue Cell Viability assay (Promega) according to the manufacturer’s protocol and a SpectraMax Multi-Mode Microplate Reader (Molecular Devices). IC50 values were determined by non-linear regression analysis of concentration-response curves using the GraphPad PRISM software package (version 6.0). Apoptosis was determined using the same cell culture conditions and the Apo-ONE Homogeneous Caspase-3/7 Assay (Promega) and the manufacturer’s protocol.
(§3) For each retroviral transduction, TF-1 cells (1 x 10^6) were suspended in 5 mL of undiluted viral supernatant and plated in one well of a 6-well tissue culture dish. Polybrene (Sigma) was added to a final concentration of 4 μg/mL and the TF-1 cells were centrifuged at 1000 x g for 3 hours to enhance retroviral mediated gene transfer. After centrifugation, the virus was removed and replaced with fresh medium.
(§4) Raw fluorescence data were corrected for background and then normalized to cultures grown in the presence of the DMSO carrier solvent. Each condition was performed in triplicate, and results are presented as the mean of the normalized values ± the SD. The resulting dose-response curves were fitted by non-linear regression analysis for estimation of the IC50 values (see Table 2). […] Fes and Flt3 kinase proteins were then immunoprecipitated from cell lysates followed by immunoblotting with antibodies to phosphotyrosine (pTyr), the Fes activation loop phosphotyrosine (pY713), as well as the Flt3 and Fes proteins.
On the technique in general: Resazurin is reduced to fluorescent resorufin, in cell work by metabolically active cells.

The test system of the next test is TF-1/Flt3-D835Y cells. Described as above. It counts as cell-based, human. The method, then:
as §2, §3, §4

Another test deals with TF-1/Flt3-ITD cells. The test is described as above. Format: cell-based, human. On the procedure:
as §2, §3, §4

The test system of test [2] is TF-1 cells expressing Flt3-WT. Described as above. It counts as cell-based. The method, then: as §2, §3, §4
Test [3] deals with Flt3-ITD+ AML cell lines (MV4-11, MOLM-13, MOLM-14). The test can be described thus: Growth inhibition across Flt3-ITD+ AML cell lines. Format: cell-based. The following applies: Homo sapiens, 72 h. The method, then: as §2
Raw fluorescence data were corrected for background and then normalized to cultures grown in the presence of the DMSO carrier solvent. Each assay condition was performed in triplicate, and results are presented as the mean of the normalized values ± the SD.

Test [4] has as its system bone marrow mononuclear cells from normal donors. The test can be described thus: Apoptosis by flow cytometry for cell-surface phosphatidylserine in normal cells (non-specific cytotoxicity). Format: cell-based, human. Conditions: 3 μM; three normal donors.
Protocol: Cells were then analyzed on a BD Accuri C6 Flow cytometer and the resulting data were evaluated using the BD CSampler software.
The presence of apoptotic cells was then assayed 48 and 72 h later by flow cytometry for cell-surface phosphatidylserine. […] To assess non-specific cytotoxicity, bone marrow mononuclear cells from three normal donors were cultured and treated with inhibitors under identical conditions, followed by flow cytometry for apoptotic cells.
Another test concerns the target Flt3. Further details: method as in PMID 22520759. Conditions: cited from earlier work.

T1 sequence (P36888 610-943 limits assumed): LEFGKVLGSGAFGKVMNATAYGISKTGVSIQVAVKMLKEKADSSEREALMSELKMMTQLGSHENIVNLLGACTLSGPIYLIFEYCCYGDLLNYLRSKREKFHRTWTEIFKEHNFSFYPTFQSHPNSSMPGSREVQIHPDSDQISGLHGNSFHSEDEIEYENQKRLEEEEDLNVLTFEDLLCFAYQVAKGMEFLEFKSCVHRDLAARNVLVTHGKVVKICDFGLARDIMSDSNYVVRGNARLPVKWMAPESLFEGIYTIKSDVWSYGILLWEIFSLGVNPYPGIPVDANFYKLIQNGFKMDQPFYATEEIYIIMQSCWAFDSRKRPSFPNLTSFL
Sequence of Flt3-ITD kinase domain (P36888 564-993, stated change not applied): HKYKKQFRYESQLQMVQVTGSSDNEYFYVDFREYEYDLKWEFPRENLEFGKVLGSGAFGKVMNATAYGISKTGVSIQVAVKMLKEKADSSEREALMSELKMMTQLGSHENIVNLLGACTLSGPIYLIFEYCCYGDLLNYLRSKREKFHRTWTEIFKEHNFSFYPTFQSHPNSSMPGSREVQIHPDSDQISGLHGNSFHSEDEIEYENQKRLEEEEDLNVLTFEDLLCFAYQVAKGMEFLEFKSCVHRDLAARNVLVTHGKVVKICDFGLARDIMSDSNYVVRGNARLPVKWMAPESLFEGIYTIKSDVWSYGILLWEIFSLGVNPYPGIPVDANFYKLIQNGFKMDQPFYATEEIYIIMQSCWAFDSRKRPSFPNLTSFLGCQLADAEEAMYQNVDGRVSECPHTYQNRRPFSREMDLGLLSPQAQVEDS

On to `CCN1CCN(Cc2ccc(NC(=O)c3ccc(C)c(Oc4ccnc5[nH]ccc45)c3)cc2C(F)(F)F)CC1` [HG7-92-01], for which the IC50 is 149 nM against Flt3-ITD kinase domain; 536 nM against Flt3-WT kinase domain; above 1000 nM in test [1]; above 1000 nM with TF-1/Flt3-D835Y cells (Homo sapiens, TF-1, 72 h; read-out: Inhibitor sensitivity of TF-1 Cell Populations (IC50, nM) Flt3-D835Y); 29 nM with TF-1/Flt3-ITD cells (Homo sapiens, TF-1, 72 h; read-out: Inhibitor sensitivity of TF-1 Cell Populations (IC50, nM) Flt3-ITD); above 1000 nM in [2] (Homo sapiens, TF-1, 72 h; read-out: Inhibitor sensitivity of TF-1 Cell Populations (IC50, nM) Flt3-WT). Further, in test [3] (MV4-11, MOLM-13, MOLM-14, read-out: IC50 values for growth inhibition, range over the Flt3-ITD+ AML cell lines), the IC50 fell in the range of 19 to 166 nM. The “Activity on TF-1/Flt3-D835Y cell growth” value in the test with TF-1/Flt3-D835Y cells (72 h) is recorded as “devoid of activity”. Besides, the “Increase in apoptosis in normal bone marrow mononuclear cells” value in test [4] is at most 10%. For the same molecule, on Flt3, the “KINOMEscan binding to Flt3” value was “bind to a wider range of kinases (including Flt3)”.
In the case of `COc1cc(N2CCC(O)CC2)ccc1Nc1nc(Nc2ccccc2S(=O)(=O)C(C)C)c2cn[nH]c2n1` [WZ4-49-1], the IC50 at Flt3-ITD kinase domain was 1390 nM; against Flt3-WT kinase domain, 3140 nM; in [1], above 3000 nM; in the test with TF-1/Flt3-D835Y cells (Homo sapiens, TF-1, 72 h, read-out: Inhibitor sensitivity of TF-1 Cell Populations (IC50, nM) Flt3-D835Y), 597 nM; in the test on TF-1/Flt3-ITD cells (Homo sapiens, TF-1, 72 h, read-out: Inhibitor sensitivity of TF-1 Cell Populations (IC50, nM) Flt3-ITD) it was 466 nM; in test [2] (Homo sapiens, TF-1, 72 h, read-out: Inhibitor sensitivity of TF-1 Cell Populations (IC50, nM) Flt3-WT), above 3000 nM. Besides, the IC50 in [3] (read-out: IC50 values for growth inhibition in all three Flt3-ITD+ AML cell lines) is around 1000 nM. Moreover, the “Potency in TF-1/Flt3-ITD cells compared to the Flt3-ITD+ AML cells” value in the test on TF-1/Flt3-ITD cells (growth inhibition) is “about two-fold higher”.
